{"source": "patent US4401604A", "about": "“Process for preparing thiosulfenamide derivatives of N-phosphonomethylglycine triesters” (Monsanto Company, priority 1981, dated 1983)", "type_in_all_cases": "in vivo", "key": {"Cocklebur [1]": {"test_system": "Cocklebur", "experiment": "Pre-emergent herbicidal activity", "conditions": "Table III; 11.2 kg/h; 2 WAT", "source_text": "(§1) A good grade of top soil is placed in aluminum pans and compacted to a depth of 0.95 to 1.27 cm. from the top of each pan. A predetermined number of seeds or vegetative propagules of each of several plant species are placed on top of the soil in each pan and then pressed down. Herbicidal compositions prepared as in the previous example are applied by admixture with or incorporation in the top layer of soil.\n(§2) In this method, the soil required to cover the seeds and propagules is weighed and admixed with a herbicidal composition containing a known amount of the active ingredient (compound of this invention). The pans are then filled with the admixture and leveled. Watering is carried out by permitting the soil in the pans to absorb moisture through apertures in the pan bottoms. The seed and propagule containing pans are placed on a wet sand bench and maintained for approximately two weeks under ordinary conditions of sunlight and watering. At the end of this period, the number of emerged plants of each species is noted and compared to an untreated control.\n(§3) The pre-emergent herbicidal activity index used below is based upon average percent control of each species as follows:\n(§4) Plant species in the table are identified by the same code letters used in the previous example."}, "Downy Brome [2]": {"test_system": "Downy Brome", "experiment": "Pre-emergent herbicidal activity", "conditions": "Table III; 11.2 kg/h; 2 WAT", "source_text": "as §1, §2, §3, §4"}, "Morningglory [3]": {"test_system": "Morningglory", "experiment": "Pre-emergent herbicidal activity", "conditions": "Table III; 11.2 kg/h; 2 WAT", "source_text": "as §1, §2, §3, §4"}, "Barnyardgrass [4]": {"test_system": "Barnyardgrass", "experiment": "Pre-emergent herbicidal activity", "conditions": "Table III; 11.2 kg/h; 2 WAT", "source_text": "as §1, §2, §3, §4"}, "Johnsongrass [5]": {"test_system": "Johnsongrass", "experiment": "Pre-emergent herbicidal activity", "conditions": "Table III; 11.2 kg/h; 2 WAT", "source_text": "as §1, §2, §3, §4"}, "Lambsquarters [6]": {"test_system": "Lambsquarters", "experiment": "Pre-emergent herbicidal activity", "conditions": "Table III; 11.2 kg/h; 2 WAT", "source_text": "as §1, §2, §3, §4"}, "Velvetleaf [7]": {"test_system": "Velvetleaf", "experiment": "Pre-emergent herbicidal activity", "conditions": "Table III; 11.2 kg/h; 2 WAT", "source_text": "as §1, §2, §3, §4"}, "Yellow Nutsedge [8]": {"test_system": "Yellow Nutsedge", "experiment": "Pre-emergent herbicidal activity", "conditions": "Table III; 11.2 kg/h; 2 WAT", "source_text": "as §1, §2, §3, §4"}, "Canada Thistle [9]": {"test_system": "Canada Thistle", "experiment": "Pre-emergent herbicidal activity", "conditions": "Table III; 11.2 kg/h; 2 WAT", "source_text": "as §1, §2, §3, §4"}, "Smartweed [10]": {"test_system": "Smartweed", "experiment": "Pre-emergent herbicidal activity", "conditions": "Table III; 11.2 kg/h; 2 WAT", "source_text": "as §1, §2, §3, §4"}, "Quackgrass [11]": {"test_system": "Quackgrass", "experiment": "Pre-emergent herbicidal activity", "conditions": "Table III; 11.2 kg/h; 2 WAT", "source_text": "as §1, §2, §3, §4"}, "Cocklebur [12]": {"test_system": "Cocklebur", "experiment": "Post-emergence herbicidal activity, greenhouse", "conditions": "Table I, 4 WAT", "source_text": "(§5) A good grade of top soil is placed in aluminum pans having holes in the bottom and compacted to a depth of 0.95 to 1.27 cm. from the top of the pan. A predetermined number of seeds of each of several dicotyledonous and monocotyledonous annual plant species and/or vegetative propagules for the perennial plant species are placed on the soil and pressed into the soil surface. The seeds and/or vegetative propagules are covered with soil and leveled. The pans are then placed on a sand bench in the greenhouse and watered from below as needed. After the plants reach the desired age (two to three weeks), each pan except for the control pans is removed individually to a spraying chamber and sprayed by means of an atomizer operating at a positive air pressure of approximately 1.46 kg/cm^2 absolute. The atomizer contains 6 ml. of a solution or suspension of the chemical. In that 6 ml., is an amount of a cyclohexanone emulsifying agent mixture to give a spray solution or suspension which contains about 0.4% by weight of the emulsifier. The spray solution or suspension contains a sufficient amount of the candidate chemical in order to give application rates corresponding to those set forth in the tables. The spray solution is prepared by taking an aliquot of a 1.0% by weight stock solution or suspension of the candidate chemical in an organic solvent such as acetone or tetrahydrofuran or in water. The emulsifying agent employed is a mixture comprising 35 weight percent butylamine dodecylbenzene sulfonate and 65 weight percent of a tall oil ethylene oxide condensate having about 11 moles of ethylene oxide per mole of tall oil. The pans are returned to the greenhouse and watered as before and the injury to the plants as compared to the control is observed at approximately two and four weeks as indicated in the tables under WAT and the results recorded. In some instances, the two-week observations are omitted.\n(§6) The post-emergence herbicidal activity index used in Table I is as follows:\n(§7) The plant species utilized in these tests are identified by letter in accordance with the following legend: […]"}, "Downy Brome [13]": {"test_system": "Downy Brome", "experiment": "Post-emergence herbicidal activity, greenhouse", "conditions": "Table I, 4 WAT", "source_text": "as §5, §6, §7"}, "Morningglory [14]": {"test_system": "Morningglory", "experiment": "Post-emergence herbicidal activity, greenhouse", "conditions": "Table I, 4 WAT", "source_text": "as §5, §6, §7"}, "Barnyardgrass [15]": {"test_system": "Barnyardgrass", "experiment": "Post-emergence herbicidal activity, greenhouse", "conditions": "Table I, 4 WAT", "source_text": "as §5, §6, §7"}, "Johnsongrass [16]": {"test_system": "Johnsongrass", "experiment": "Post-emergence herbicidal activity, greenhouse", "conditions": "Table I, 4 WAT", "source_text": "as §5, §6, §7"}, "Lambsquarters [17]": {"test_system": "Lambsquarters", "experiment": "Post-emergence herbicidal activity, greenhouse", "conditions": "Table I, 4 WAT", "source_text": "as §5, §6, §7"}, "Velvetleaf [18]": {"test_system": "Velvetleaf", "experiment": "Post-emergence herbicidal activity, greenhouse", "conditions": "Table I, 4 WAT", "source_text": "as §5, §6, §7"}, "Yellow Nutsedge [19]": {"test_system": "Yellow Nutsedge", "experiment": "Post-emergence herbicidal activity, greenhouse", "conditions": "Table I, 4 WAT", "source_text": "as §5, §6, §7"}, "Canada Thistle [20]": {"test_system": "Canada Thistle", "experiment": "Post-emergence herbicidal activity, greenhouse", "conditions": "Table I, 4 WAT", "source_text": "as §5, §6, §7"}, "Smartweed [21]": {"test_system": "Smartweed", "experiment": "Post-emergence herbicidal activity, greenhouse", "conditions": "Table I, 4 WAT", "source_text": "as §5, §6, §7"}, "Quackgrass [22]": {"test_system": "Quackgrass", "experiment": "Post-emergence herbicidal activity, greenhouse", "conditions": "Table I, 4 WAT", "source_text": "as §5, §6, §7"}}, "data": [{"molecule": "O=C(CN(CP(=O)(Oc1ccccc1)Oc1ccccc1)SSC1CCCCC1)OCc1ccccc1", "note": "[III, Glycine, N-(cyclohexyldithio)-N-[(diphenoxyphosphinyl)methyl]-, phenylmethyl ester]", "values": [{"measurement": "pre-emergent herbicidal activity index", "setting": "Cocklebur [1]", "value": "0 (0-24% control)"}, {"measurement": "pre-emergent herbicidal activity index", "setting": "Downy Brome [2]", "value": "0 (0-24% control)"}, {"measurement": "pre-emergent herbicidal activity index", "setting": "Morningglory [3]", "value": "0 (0-24% control)"}, {"measurement": "pre-emergent herbicidal activity index", "setting": "Barnyardgrass [4]", "value": "0 (0-24% control)"}, {"measurement": "pre-emergent herbicidal activity index", "setting": "Johnsongrass [5]", "value": "0 (0-24% control)"}, {"measurement": "pre-emergent herbicidal activity index", "setting": "Lambsquarters [6]", "value": "0 (0-24% control)"}, {"measurement": "pre-emergent herbicidal activity index", "setting": "Velvetleaf [7]", "value": "0 (0-24% control)"}, {"measurement": "pre-emergent herbicidal activity index", "setting": "Yellow Nutsedge [8]", "value": "0 (0-24% control)"}, {"measurement": "pre-emergent herbicidal activity index", "setting": "Canada Thistle [9]", "value": "1 (25-49% control)"}, {"measurement": "pre-emergent herbicidal activity index", "setting": "Smartweed [10]", "value": "0 (0-24% control)"}, {"measurement": "pre-emergent herbicidal activity index", "setting": "Quackgrass [11]", "value": "0 (0-24% control)"}, {"measurement": "post-emergence herbicidal activity index", "setting": "Cocklebur [12]; 5.6 kg/h", "value": "1 (25-49% control)"}, {"measurement": "post-emergence herbicidal activity index", "setting": "Cocklebur [12]; 11.2 kg/h", "value": "2 (50-74% control)"}, {"measurement": "post-emergence herbicidal activity index", "setting": "Downy Brome [13]; 5.6 kg/h", "value": "1 (25-49% control)"}, {"measurement": "post-emergence herbicidal activity index", "setting": "Downy Brome [13]; 11.2 kg/h", "value": "1 (25-49% control)"}, {"measurement": "post-emergence herbicidal activity index", "setting": "Morningglory [14]; 5.6 kg/h", "value": "1 (25-49% control)"}, {"measurement": "post-emergence herbicidal activity index", "setting": "Morningglory [14]; 11.2 kg/h", "value": "2 (50-74% control)"}, {"measurement": "post-emergence herbicidal activity index", "setting": "Barnyardgrass [15]; 5.6 kg/h", "value": "2 (50-74% control)"}, {"measurement": "post-emergence herbicidal activity index", "setting": "Barnyardgrass [15]; 11.2 kg/h", "value": "2 (50-74% control)"}, {"measurement": "post-emergence herbicidal activity index", "setting": "Johnsongrass [16]; 5.6 kg/h", "value": "1 (25-49% control)"}, {"measurement": "post-emergence herbicidal activity index", "setting": "Johnsongrass [16]; 11.2 kg/h", "value": "1 (25-49% control)"}, {"measurement": "post-emergence herbicidal activity index", "setting": "Lambsquarters [17]; 5.6 kg/h", "value": "2 (50-74% control)"}, {"measurement": "post-emergence herbicidal activity index", "setting": "Lambsquarters [17]; 11.2 kg/h", "value": "2 (50-74% control)"}, {"measurement": "post-emergence herbicidal activity index", "setting": "Velvetleaf [18]; 5.6 kg/h", "value": "0 (0- 24% control)"}, {"measurement": "post-emergence herbicidal activity index", "setting": "Velvetleaf [18]; 11.2 kg/h", "value": "1 (25-49% control)"}, {"measurement": "post-emergence herbicidal activity index", "setting": "Yellow Nutsedge [19]; 5.6 kg/h", "value": "0 (0- 24% control)"}, {"measurement": "post-emergence herbicidal activity index", "setting": "Yellow Nutsedge [19]; 11.2 kg/h", "value": "0 (0- 24% control)"}, {"measurement": "post-emergence herbicidal activity index", "setting": "Canada Thistle [20]; 5.6 kg/h", "value": "1 (25-49% control)"}, {"measurement": "post-emergence herbicidal activity index", "setting": "Canada Thistle [20]; 11.2 kg/h", "value": "0 (0- 24% control)"}, {"measurement": "post-emergence herbicidal activity index", "setting": "Smartweed [21]; 5.6 kg/h", "value": "2 (50-74% control)"}, {"measurement": "post-emergence herbicidal activity index", "setting": "Smartweed [21]; 11.2 kg/h", "value": "1 (25-49% control)"}, {"measurement": "post-emergence herbicidal activity index", "setting": "Quackgrass [22]; 5.6 kg/h", "value": "1 (25-49% control)"}, {"measurement": "post-emergence herbicidal activity index", "setting": "Quackgrass [22]; 11.2 kg/h", "value": "2 (50-74% control)"}]}]}
